Results reported in US7993922B2, “Three-dimensional tissue equivalent using macromass culture” (Reliance Life Sciences Pvt. Ltd., priority 2002, dated 2011).

What was measured:
[1] = tested on: dividing monolayers of fibroblasts; experiment: Camptothecin toxicity on dividing monolayers, MTT; format: cell-based, human; details: actively dividing monolayer cells
Description: (§1) As mentioned previously, the tissue equivalent of the present invention could be used as an in vitro model of normal non-dividing cells for safety testing of anti-cancer compounds. To test its usefulness as such a model, dividing monolayers of fibroblasts and the tissue-equivalent of the present invention were incubated with or without (control) camptothecin, an anti-cancer drug known to act on dividing cells and not on non-dividing cells. Both were incubated for the same period of time. Then the metabolic activity was assessed by incubating both groups in MTT, which was quantified by spectrophotometry. […] Leroy et al. Ann. N.Y. Acad. Sci. (2000) 922:1-10. Thus, these are normal cells in a non-dividing state, which could be a model of the normal quiescent cells of the human body, in contrast to the abnormal tumour cells which are rapidly dividing.

[2] = tested on: tissue-equivalent of the present invention (non-dividing fibroblasts); experiment: Camptothecin toxicity on the non-dividing model (tissue equivalent), MTT; format: cell-based, human; details: non-dividing cells
Description: as §1

[3] = tested on: neuropathic diabetic foot ulcers; details: topical; cited from earlier work

Molecule | Toxicity (metabolic activity, MTT) [1] | Toxicity (metabolic activity, MTT) [2] | Acceleration in the healing of ulcers [3]
CC[C@@]1(O)C(=O)OCc2c1cc1n(c2=O)Cc2cc3ccccc3nc2-1 [camptothecin] | toxic | no toxicity | 
Regranex® Becaplermin: FDA-approved topical platelet-derived growth factor (PDGF) for chronic diabetic neuropathic ulcers |  |  | 15%
